From PubChem BioAssay (NCI)
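Protocol summary: plate cells (96-well), add compound at 5 concentrations, incubate 48 h, interpolate endpoints linearly. TGI is the concentration that stops growth completely.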

Key:
Experiment in all cases: inhibition of tumour cell growth, NCI panel, 48 h
[1] = system: 786-0 renal
[2] = system: A498 renal
[3] = system: A549 NSCLC
[4] = system: ACHN renal
[5] = system: BT-549 breast
[6] = system: CAKI-1 renal
[7] = system: CCRF-CEM leukemia
[8] = system: COLO 205 colon
[9] = system: DU-145 prostate
[10] = system: EKVX NSCLC
[11] = system: HCC-2998 colon
[12] = system: HCT-116 colon
[13] = system: HCT-15 colon
[14] = system: HL-60(TB) leukemia
[15] = system: HOP-62 NSCLC
[16] = system: HOP-92 NSCLC
[17] = system: HS 578T breast
[18] = system: HT29 colon
[19] = system: IGROV1 ovarian
[20] = system: K-562 leukemia
[21] = system: KM12 colon
[22] = system: LOX IMVI melanoma
[23] = system: M14 melanoma
[24] = system: MALME-3M melanoma
[25] = system: MCF7 breast
[26] = system: MDA-MB-231 breast
[27] = system: MDA-N
[28] = system: MOLT-4 leukemia
[29] = system: NCI-H226 lung
[30] = system: NCI-H23 lung
[31] = system: NCI-H460 lung
[32] = system: NCI-H522 lung
[33] = system: NCI/ADR-RES ovarian
[34] = system: OVCAR-3 ovarian
[35] = system: OVCAR-4 ovarian
[36] = system: OVCAR-5 ovarian
[37] = system: OVCAR-8 ovarian
[38] = system: PC-3 prostate
[39] = system: RPMI-8226 leukemia
[40] = system: RXF 393 renal
[41] = system: SF-268 CNS
[42] = system: SF-295 CNS
[43] = system: SF-539 CNS
[44] = system: SK-MEL-2 melanoma
[45] = system: SK-MEL-28 melanoma
[46] = system: SK-MEL-5 melanoma
[47] = system: SK-OV-3 ovarian
[48] = system: SN12C renal
[49] = system: SNB-19 CNS
[50] = system: SNB-75 CNS
[51] = system: SR leukemia
[52] = system: SW-620 colon
[53] = system: T-47D breast
[54] = system: TK-10 renal
[55] = system: U251 CNS
[56] = system: UACC-257 melanoma
[57] = system: UACC-62 melanoma
[58] = system: UO-31 renal

COc1cc(Oc2nc3c(N)cc(C(F)(F)F)cc3nc2-c2ccccc2)cc(OC)c1OC
TGI [1]: > 41.1 µM
TGI [2]: 81.5 µM
TGI [3]: > 100 µM
TGI [4]: 32.5 µM
TGI [5]: 34.5 µM
TGI [6]: > 45.2 µM
TGI [7]: > 31.6 µM
TGI [8]: > 80.7 µM
TGI [9]: > 100 µM
TGI [10]: > 100 µM
TGI [11]: > 55.1 µM
TGI [12]: > 45.3 µM
TGI [13]: > 100 µM
TGI [14]: > 100 µM
TGI [15]: > 46.7 µM
TGI [16]: > 65.4 µM
TGI [17]: > 53.8 µM
TGI [18]: 5.31 µM
TGI [19]: > 24.3 µM
TGI [20]: 6.6 µM
TGI [21]: > 100 µM
TGI [22]: > 100 µM
TGI [23]: > 100 µM
TGI [24]: 11.5 µM
TGI [25]: > 50.5 µM
TGI [26]: > 100 µM
TGI [27]: 3.08 µM
TGI [28]: > 100 µM
TGI [29]: > 78.2 µM
TGI [30]: > 63.6 µM
TGI [31]: > 100 µM
TGI [32]: 18.8 µM
TGI [33]: > 26.1 µM
TGI [34]: 13.5 µM
TGI [35]: > 100 µM
TGI [36]: > 100 µM
TGI [37]: > 46.3 µM
TGI [38]: 29.5 µM
TGI [39]: > 100 µM
TGI [40]: 52 µM
TGI [41]: > 100 µM
TGI [42]: > 29 µM
TGI [43]: 14.3 µM
TGI [44]: 21 µM
TGI [45]: > 68.7 µM
TGI [46]: 48.6 µM
TGI [47]: > 66.5 µM
TGI [48]: > 100 µM
TGI [49]: 27.6 µM
TGI [50]: 26 µM
TGI [51]: > 100 µM
TGI [52]: > 26.2 µM
TGI [53]: > 100 µM
TGI [54]: > 100 µM
TGI [55]: > 45.7 µM
TGI [56]: 43.9 µM
TGI [57]: 15.9 µM
TGI [58]: > 100 µM
